For eleven compounds, solubility and IC50 results are on record in ChEMBL document CHEMBL1806399, “Synthesis and SAR of new pyrazolo[4,3-h]quinazoline-3-carboxamide derivatives as potent and selective MPS1 kinase inhibitors” (Bioorg Med Chem Lett, 2011).

In brackets after ≈: the same amount, converted by molar mass.

Chain of Serine/threonine-protein kinase PLK1 (P53350 whole entry): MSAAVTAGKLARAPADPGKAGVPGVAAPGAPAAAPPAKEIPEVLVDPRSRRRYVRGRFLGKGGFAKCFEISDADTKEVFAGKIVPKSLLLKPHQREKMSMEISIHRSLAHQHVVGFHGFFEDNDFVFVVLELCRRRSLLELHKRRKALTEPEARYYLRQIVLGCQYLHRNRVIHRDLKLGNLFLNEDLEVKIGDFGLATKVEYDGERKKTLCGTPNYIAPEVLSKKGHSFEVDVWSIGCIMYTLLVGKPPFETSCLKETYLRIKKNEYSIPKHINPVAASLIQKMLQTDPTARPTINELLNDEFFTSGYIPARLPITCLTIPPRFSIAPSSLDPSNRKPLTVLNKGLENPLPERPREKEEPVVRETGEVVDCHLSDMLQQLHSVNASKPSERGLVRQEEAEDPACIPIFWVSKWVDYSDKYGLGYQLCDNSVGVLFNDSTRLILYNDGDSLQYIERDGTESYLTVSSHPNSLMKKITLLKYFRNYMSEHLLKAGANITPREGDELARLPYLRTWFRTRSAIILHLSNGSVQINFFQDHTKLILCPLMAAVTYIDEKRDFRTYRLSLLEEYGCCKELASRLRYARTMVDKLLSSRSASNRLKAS

System in one data set: not listed separately
Description: Solubility of the compound at pH 7. It is filed as physicochemical. Conditions: buffer.
What is called solubility is the dissolved amount per volume that the medium holds. As to `CCc1cccc(CC)c1NC(=O)c1nn(C)c2c1CCc1cnc(Nc3ccc(C(=O)NC4CCN(C)CC4)cc3OC)nc1-2`, the solubility was found to be 3 µM (≈ 1.87 µg/mL).

With `CCc1cccc(CC)c1NC(=O)c1nn(C)c2c1CCc1cnc(Nc3ccc(C(=O)NCCN(C)C)cc3OC)nc1-2`, the solubility was determined as 44 µM (≈ 26.3 µg/mL).

As to `CCc1cccc(CC)c1NC(=O)c1nn(C)c2c1CCc1cnc(Nc3ccc(C(=O)NCCN(C)C)cc3OC(F)(F)F)nc1-2`, the concentration in solution (solubility) came to 27 µM (≈ 17.6 µg/mL).

As for `CCc1cccc(CC)c1NC(=O)c1nn(C)c2c1CCc1cnc(Nc3ccc(C(=O)N4CCC[C@@H]4CN4CCCC4)cc3OC)nc1-2`, the solubility is 110 µM (≈ 72.9 µg/mL).

The test system of the next data set is A2780. The data set is described as follows: Antiproliferative activity in human A2780 cells after 72 hrs by CellTiter-Glo assay. The format is functional, cell-based. Conditions: A2780, 72 h.
As a reminder, the IC50 is the concentration at which inhibition is half-maximal. As to `CCc1cccc(CC)c1NC(=O)c1nn(C)c2c1CCc1cnc(Nc3ccc(C(=O)NC4CCN(C)CC4)cc3OC)nc1-2`, the midpoint of inhibition, the IC50, lay at 150 nM.

On to `CCc1cccc(CC)c1NC(=O)c1nn(C)c2c1CCc1cnc(Nc3ccc(C(=O)NCCN(C)C)cc3OC)nc1-2`, for which half-maximal inhibition (IC50) was put at 101 nM.

Consider `CCc1cccc(CC)c1NC(=O)c1nn(C)c2c1CCc1cnc(Nc3ccc(C(=O)NCCN(C)C)cc3OC(F)(F)F)nc1-2`, for which inhibition was half-maximal at 771 nM (IC50).

Compound `CCc1cccc(CC)c1NC(=O)c1nn(C)c2c1CCc1cnc(Nc3ccc(C(=O)N4CCC[C@@H]4CN4CCCC4)cc3OC)nc1-2` gave an IC50 of 83 nM.

Another data set relates to U2OS. The data set is described as follows: Inhibition of mitosis in human U2OS cells assessed as histone H3 phosphorylation at Ser 10 residue after 2 hrs by immunoassay.
Settings: not given
It is filed as functional, cell-based.
Take `CCc1cccc(CC)c1NC(=O)c1nn(C)c2c1CCc1cnc(Nc3ccc(C(=O)NC4CCN(C)CC4)cc3OC)nc1-2`: the IC50 worked out at 16 nM.

Consider `CCc1cccc(CC)c1NC(=O)c1nn(C)c2c1CCc1cnc(Nc3ccc(C(=O)NCCN(C)C)cc3OC)nc1-2`, for which the IC50 turned out to be 12 nM.

On to `CCc1cccc(CC)c1NC(=O)c1nn(C)c2c1CCc1cnc(Nc3ccc(C(=O)NCCN(C)C)cc3OC(F)(F)F)nc1-2`, for which the IC50 was 110 nM.

On to `CCc1cccc(CC)c1NC(=O)c1nn(C)c2c1CCc1cnc(Nc3ccc(C(=O)N4CCC[C@@H]4CN4CCCC4)cc3OC)nc1-2`, for which the IC50 stood at 11 nM.

The next data set concerns the target Serine/threonine-protein kinase PLK1 (Homo sapiens, UniProt P53350). The data set is described as follows: Inhibition of PLK1 assessed as [33P]-gamma-ATP incorporation into substrate by gamma counting.
Settings: not given
Turning to `CCc1cccc(CC)c1NC(=O)c1nn(C)c2c1CCc1cnc(Nc3ccccc3)nc1-2`, the IC50 was greater than 10000 nM.

Turning to `Cn1nc(C(=O)NCCc2ccccc2)c2c1-c1nc(Nc3ccccc3)ncc1CC2`, the IC50 was greater than 10000 nM.

With `CCc1cccc(CC)c1NC(=O)c1nn(C)c2c1CCc1cnc(Nc3ccc(C(=O)NC4CCN(C)CC4)cc3OC)nc1-2`, the IC50 was 237 nM.

As to `CCc1cccc(CC)c1NC(=O)c1nn(C)c2c1CCc1cnc(Nc3ccc(C(=O)NCCN(C)C)cc3OC)nc1-2`, the IC50 came out at 1650 nM.

Take `CCc1cccc(CC)c1NC(=O)c1nn(C)c2c1CCc1cnc(Nc3ccc(C(=O)NCCN(C)C)cc3OC(F)(F)F)nc1-2`: the half-inhibitory concentration (IC50) is greater than 10000 nM.

Regarding `CCc1cccc(CC)c1NC(=O)c1nn(C)c2c1CCc1cnc(Nc3ccc(C(=O)N4CCC[C@@H]4CN4CCCC4)cc3OC)nc1-2`, the half-inhibitory concentration (IC50) was greater than 10000 nM.

For the compound `Cn1nc(C(=O)NCc2ccccc2)c2c1-c1nc(Nc3ccccc3)ncc1CC2`, the IC50 is greater than 10000 nM.

The next data set has as its target T1, Dual specificity protein kinase TTK (Homo sapiens, UniProt P33981).
T1 sequence (P33981 whole entry): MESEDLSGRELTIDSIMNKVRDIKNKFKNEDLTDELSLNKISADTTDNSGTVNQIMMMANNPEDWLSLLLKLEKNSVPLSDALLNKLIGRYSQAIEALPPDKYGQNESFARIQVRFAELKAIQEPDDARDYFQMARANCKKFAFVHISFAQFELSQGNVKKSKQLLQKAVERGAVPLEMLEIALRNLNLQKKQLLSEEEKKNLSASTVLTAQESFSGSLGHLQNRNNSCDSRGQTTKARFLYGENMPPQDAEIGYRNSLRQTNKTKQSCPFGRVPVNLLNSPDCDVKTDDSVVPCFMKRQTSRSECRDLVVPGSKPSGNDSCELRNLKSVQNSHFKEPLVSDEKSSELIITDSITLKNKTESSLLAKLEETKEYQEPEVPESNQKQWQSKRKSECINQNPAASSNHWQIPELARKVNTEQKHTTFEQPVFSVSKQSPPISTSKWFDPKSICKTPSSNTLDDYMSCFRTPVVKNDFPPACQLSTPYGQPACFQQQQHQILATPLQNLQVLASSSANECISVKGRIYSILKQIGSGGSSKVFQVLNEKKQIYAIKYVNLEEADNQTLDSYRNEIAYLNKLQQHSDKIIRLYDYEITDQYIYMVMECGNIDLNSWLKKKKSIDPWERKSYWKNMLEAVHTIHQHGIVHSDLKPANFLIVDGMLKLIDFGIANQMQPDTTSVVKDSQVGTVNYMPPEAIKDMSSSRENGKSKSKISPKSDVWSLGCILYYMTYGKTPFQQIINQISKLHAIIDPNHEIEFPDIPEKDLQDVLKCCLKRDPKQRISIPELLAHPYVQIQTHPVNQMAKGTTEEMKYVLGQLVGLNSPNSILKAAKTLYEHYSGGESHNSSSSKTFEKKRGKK
The data set is described as follows: Inhibition of MPS1 assessed as [33P]-gamma-ATP incorporation into substrate P38-betatide by gamma counting.
Settings: not given
In the case of `COc1ccccc1Nc1ncc2c(n1)-c1c(c(C(N)=O)nn1C)CC2`, the IC50 was 66 nM.

For `Cc1ccccc1Nc1ncc2c(n1)-c1c(c(C(N)=O)nn1C)CC2`, the concentration for half-maximal inhibition (IC50) was 241 nM.

Turning to `Cn1nc(C(N)=O)c2c1-c1nc(Nc3ccccc3OC(F)(F)F)ncc1CC2`, the IC50 was determined as 1220 nM.

On to `CCc1cccc(CC)c1NC(=O)c1nn(C)c2c1CCc1cnc(Nc3ccccc3)nc1-2`, for which the IC50 was 530 nM.

Regarding `Cn1nc(C(=O)NCCc2ccccc2)c2c1-c1nc(Nc3ccccc3)ncc1CC2`, the IC50 is greater than 12000 nM.

Consider `CCc1cccc(CC)c1NC(=O)c1nn(C)c2c1CCc1cnc(Nc3ccc(C(=O)NC4CCN(C)CC4)cc3OC)nc1-2`, for which the concentration for half-maximal inhibition (IC50) turned out to be 84 nM.

With `CCc1cccc(CC)c1NC(=O)c1nn(C)c2c1CCc1cnc(Nc3ccc(C(=O)NCCN(C)C)cc3OC)nc1-2`, the IC50 was found to be 33 nM.

In the case of `CCc1cccc(CC)c1NC(=O)c1nn(C)c2c1CCc1cnc(Nc3ccc(C(=O)NCCN(C)C)cc3OC(F)(F)F)nc1-2`, the IC50 was 130 nM.

For the compound `CCc1cccc(CC)c1NC(=O)c1nn(C)c2c1CCc1cnc(Nc3ccc(C(=O)N4CCC[C@@H]4CN4CCCC4)cc3OC)nc1-2`, the IC50 is 103 nM.

Consider `Cn1nc(C(=O)NCc2ccccc2)c2c1-c1nc(Nc3ccccc3)ncc1CC2`, for which the IC50 was greater than 11000 nM.

Take `CNC(=O)c1nn(C)c2c1CCc1cnc(Nc3ccccc3)nc1-2`: the IC50 was found to be 2170 nM.

The target in the next data set is Cyclin-dependent kinase 2/cyclin A (Homo sapiens, UniProt P24941). Description: Inhibition of CDK2/Cyclin A assessed as [33P]-gamma-ATP incorporation into substrate by gamma counting. The format is protein-complex assay.
Settings: not given
Turning to `Cn1nc(C(N)=O)c2c1-c1nc(Nc3ccccc3OC(F)(F)F)ncc1CC2`, the IC50 is greater than 10000 nM.

On to `CCc1cccc(CC)c1NC(=O)c1nn(C)c2c1CCc1cnc(Nc3ccccc3)nc1-2`, for which the IC50 was greater than 10000 nM.

With `Cn1nc(C(=O)NCCc2ccccc2)c2c1-c1nc(Nc3ccccc3)ncc1CC2`, the IC50 was found to be 697 nM.

Regarding `CCc1cccc(CC)c1NC(=O)c1nn(C)c2c1CCc1cnc(Nc3ccc(C(=O)NC4CCN(C)CC4)cc3OC)nc1-2`, the IC50 is greater than 10000 nM.

On to `CCc1cccc(CC)c1NC(=O)c1nn(C)c2c1CCc1cnc(Nc3ccc(C(=O)NCCN(C)C)cc3OC)nc1-2`, for which the IC50 is greater than 10000 nM.

As to `CCc1cccc(CC)c1NC(=O)c1nn(C)c2c1CCc1cnc(Nc3ccc(C(=O)NCCN(C)C)cc3OC(F)(F)F)nc1-2`, the IC50 was greater than 10000 nM.

Take `CCc1cccc(CC)c1NC(=O)c1nn(C)c2c1CCc1cnc(Nc3ccc(C(=O)N4CCC[C@@H]4CN4CCCC4)cc3OC)nc1-2`: the IC50 is greater than 10000 nM.

For another data set, the target named is T2, Aurora kinase A (Homo sapiens, UniProt O14965).
T2 sequence (O14965 whole entry): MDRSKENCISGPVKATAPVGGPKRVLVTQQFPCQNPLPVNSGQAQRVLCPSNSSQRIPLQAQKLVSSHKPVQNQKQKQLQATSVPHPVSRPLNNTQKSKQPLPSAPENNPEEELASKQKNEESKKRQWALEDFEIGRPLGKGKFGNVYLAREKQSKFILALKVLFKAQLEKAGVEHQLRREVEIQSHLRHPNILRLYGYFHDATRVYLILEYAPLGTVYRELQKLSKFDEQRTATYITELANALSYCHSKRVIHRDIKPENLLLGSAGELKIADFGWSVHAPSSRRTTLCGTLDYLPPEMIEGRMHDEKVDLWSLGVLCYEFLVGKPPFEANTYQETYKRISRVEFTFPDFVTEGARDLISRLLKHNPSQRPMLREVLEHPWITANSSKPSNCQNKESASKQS
The data set is described as follows: Inhibition of Aur-A assessed as [33P]-gamma-ATP incorporation into substrate by gamma counting.
Settings: not given
`Cn1nc(C(N)=O)c2c1-c1nc(Nc3ccccc3OC(F)(F)F)ncc1CC2`: the IC50 was greater than 10000 nM.

For the compound `CCc1cccc(CC)c1NC(=O)c1nn(C)c2c1CCc1cnc(Nc3ccccc3)nc1-2`, the IC50 was 152 nM.

Turning to `Cn1nc(C(=O)NCCc2ccccc2)c2c1-c1nc(Nc3ccccc3)ncc1CC2`, the IC50 was 677 nM.

`CCc1cccc(CC)c1NC(=O)c1nn(C)c2c1CCc1cnc(Nc3ccc(C(=O)NC4CCN(C)CC4)cc3OC)nc1-2`: the IC50 was determined as 1450 nM.

On to `CCc1cccc(CC)c1NC(=O)c1nn(C)c2c1CCc1cnc(Nc3ccc(C(=O)NCCN(C)C)cc3OC)nc1-2`, for which the 50% inhibitory concentration (IC50) is 750 nM.

Take `CCc1cccc(CC)c1NC(=O)c1nn(C)c2c1CCc1cnc(Nc3ccc(C(=O)NCCN(C)C)cc3OC(F)(F)F)nc1-2`: the 50% inhibitory concentration (IC50) was determined as 1380 nM.

On to `CCc1cccc(CC)c1NC(=O)c1nn(C)c2c1CCc1cnc(Nc3ccc(C(=O)N4CCC[C@@H]4CN4CCCC4)cc3OC)nc1-2`, for which the IC50 was found to be 1380 nM.
